Data: ChEMBL document CHEMBL3580555, “Design, Synthesis, and Biological Evaluation of Novel Imidazo[1,2-a]pyridine Derivatives as Potent c-Met Inhibitors” (ACS Med Chem Lett, 2015)
One block for each molecule: values may come before it. Activity calls are given as the source filed them. The calls are words filed in the database; no cut-off is given here.

What was measured:
[1] = Antiproliferative activity against human EBC1 cells after 72 hrs; settings: EBC-1, 72 h
[2] = tested on: Liver microsome; experiment: Drug metabolism in Sprague-Dawley rat liver microsomes assessed as 2-Fluoro-4-(8-fluoro-3-(hydroxy(quinolin-6-yl)methyl)imidazo[1,2-a]pyridin-6-yl)-N-methylbenzamide metabolite formation after 60 mins by UPLC/Q-TOF MS/MS analysis; format: ADME; settings: 1 h
[3] = tested on: Liver microsome; experiment: Drug metabolism in beagle dog liver microsomes assessed as 2-Fluoro-4-(8-fluoro-3-(hydroxy(quinolin-6-yl)methyl)imidazo[1,2-a]pyridin-6-yl)-N-methylbenzamide metabolite formation after 60 mins by UPLC/Q-TOF MS/MS analysis; format: ADME, Canis lupus familiaris; settings: 1 h
[4] = tested on: Liver microsome; experiment: Drug metabolism in human liver microsomes assessed as 2-Fluoro-4-(8-fluoro-3-(hydroxy(quinolin-6-yl)methyl)imidazo[1,2-a]pyridin-6-yl)-N-methylbenzamide metabolite formation after 60 mins by UPLC/Q-TOF MS/MS analysis; format: ADME; settings: 1 h
[5] = Drug metabolism in monkey liver microsomes assessed as 2-Fluoro-4-(8-fluoro-3-(hydroxy(quinolin-6-yl)methyl)imidazo[1,2-a]pyridin-6-yl)-N-methylbenzamide metabolite formation after 60 mins by UPLC/Q-TOF MS/MS analysis; format: ADME, Macaca mulatta; settings: rhesus monkey, 1 h
[6] = tested on: Liver microsome; experiment: Drug formation in Sprague-Dawley rat liver microsomes treated with 2-Fluoro-4-(8-fluoro-3-(quinolin-6-ylmethyl)imidazo[1,2-a]pyridin-6-yl)-N-methylbenzamide after 60 mins by UPLC/Q-TOF MS/MS analysis; format: ADME; settings: 1 h
[7] = biological target: Voltage-gated inwardly rectifying potassium channel KCNH2 (Homo sapiens, UniProt Q12809); experiment: Inhibition of human ERG channel
[8] = tested on: EBC-1; experiment: Antitumor activity against human EBC1 cells xenografted in po dosed mouse assessed as tumor growth inhibition treated for 3 weeks; format: functional, organism-based
[9] = Antitumor activity against human EBC1 cells xenografted in mouse assessed as tumor growth inhibition treated at 100 mg/kg, po for 3 weeks; format: functional; settings: EBC-1, po, 504 h
[10] = Antitumor activity against human EBC1 cells xenografted in mouse assessed as tumor growth inhibition treated at 50 mg/kg, po for 3 weeks; format: functional; settings: EBC-1, po, 504 h, read-out: INH
[11] = tested on: Mus musculus; experiment: Toxicity in human EBC1 cells xenografted in mouse assessed as weight losses treated at 50 to 100 mg/kg, po for 3 weeks; format: organism-based; settings: in vivo, 504 h
[12] = Antiproliferative activity against human BGC823 cells after 72 hrs; format: functional, cell-based; settings: BGC-823, 72 h
[13] = tested on: MGC-803; experiment: Antiproliferative activity against human MGC803 cells after 72 hrs; format: functional, cell-based; settings: MGC-803, 72 h
[14] = Antiproliferative activity against human SPCA1 cells after 72 hrs; format: functional, cell-based; settings: SPCA1, 72 h
[15] = Antiproliferative activity against human SPCA4 cells after 72 hrs; format: functional, cell-based; settings: SPC-A4, 72 h
[16] = Antiproliferative activity against human Calu3 cells after 72 hrs; format: functional, cell-based; settings: Calu-3, 72 h
[17] = Antiproliferative activity against human SGC7901 cells after 72 hrs; format: functional, cell-based; settings: SGC-7901, 72 h
[18] = Antiproliferative activity against human MKN74 cells after 72 hrs; format: functional, cell-based; settings: MKN-74, 72 h
[19] = Antiproliferative activity against human MKN1 cells after 72 hrs; format: functional, cell-based; settings: MKN-1, 72 h
[20] = tested on: HT-29; experiment: Antiproliferative activity against human HT-29 cells after 72 hrs; format: functional, cell-based; settings: HT-29, 72 h
[21] = tested on: AGS; experiment: Antiproliferative activity against human AGS cells after 72 hrs; format: functional, cell-based
[22] = Antiproliferative activity against human SNU16 cells after 72 hrs; format: functional, cell-based; settings: SNU-16, 72 h
[23] = tested on: SNU1; experiment: Antiproliferative activity against human SNU1 cells after 72 hrs; format: functional, cell-based; settings: SNU1, 72 h
[24] = tested on: A549; experiment: Antiproliferative activity against human A549 cells after 72 hrs; format: functional, cell-based; settings: A549, 72 h
[25] = biological target: Tyrosine-protein kinase receptor UFO (Homo sapiens, UniProt P30530); experiment: Inhibition of Axl (unknown origin) using polu (Glu,Tyr)4:1 substrate after 30 mins incubation by multi-well spectrophotometry
[26] = biological target: Tyrosine-protein kinase Mer (Homo sapiens, UniProt Q12866); experiment: Inhibition of Mer (unknown origin) using polu (Glu,Tyr)4:1 substrate after 30 mins incubation by multi-well spectrophotometry
[27] = biological target: Tyrosine-protein kinase receptor TYRO3 (Homo sapiens, UniProt Q06418); experiment: Inhibition of Tyro3 (unknown origin) using polu (Glu,Tyr)4:1 substrate after 30 mins incubation by multi-well spectrophotometry
[28] = Antiproliferative activity against human MKN45 cells after 72 hrs; format: functional, cell-based; settings: MKN-45, 72 h
[29] = Antiproliferative activity against human SNU5 cells after 72 hrs; format: functional, cell-based; settings: SNU-5, 72 h
[30] = tested on: BaF3; experiment: Antiproliferative activity against mouse BAF3/TPR-Met cells after 72 hrs; format: functional, cell-based; settings: BaF3, 72 h
[31] = tested on: EBC-1; experiment: Induction of cell cycle arrest in human EBC1 cells assessed as cell accumulation at G1/S phase at 1 uM after 24 hrs by FACS analysis; format: functional, cell-based
[32] = tested on: EBC-1; experiment: Induction of cell cycle arrest in human EBC1 cells assessed as cell accumulation at G1 phase at 1 uM after 24 hrs by FACS analysis (reference value: 52.95%); format: functional
[33] = tested on: NCI-H441; experiment: Inhibition of HGF-induced human NCI-H441 cell migration at 500 nM after 24 hrs by spectrophotometry; format: functional, cell-based
[34] = tested on: NCI-H441; experiment: Inhibition of HGF-induced human NCI-H441 cell invasion at 500 nM after 24 hrs by spectrophotometry; format: functional, cell-based
[35] = tested on: MDCK; experiment: Reduction in HGF-induced cell scattering of MDCK cells after 24 hrs by microscopy; format: functional, cell-based; settings: Canis lupus familiaris
[36] = Half life in Sprague-Dawley rat at 10 mg/kg, iv; format: ADME, organism-based; settings: in vivo
[37] = Oral bioavailability in Sprague-Dawley rat at 20 mg/kg; format: ADME, organism-based; settings: in vivo
[38] = Drug metabolism in CD1 mouse liver microsomes assessed as 2-Fluoro-4-(8-fluoro-3-(hydroxy(quinolin-6-yl)methyl)imidazo[1,2-a]pyridin-6-yl)-N-methylbenzamide metabolite formation after 60 mins by UPLC/Q-TOF MS/MS analysis; format: ADME; settings: 1 h
[39] = tested on: NCI-H520; experiment: Antiproliferative activity against human NCI-H520 cells after 72 hrs; format: functional, cell-based; settings: NCI-H520, 72 h
[40] = tested on: NCI-H1975; experiment: Antiproliferative activity against human NCI-H1975 cells after 72 hrs; format: functional, cell-based; settings: NCI-H1975, 72 h
[41] = tested on: NCI-H1650; experiment: Antiproliferative activity against human NCI-H1650 cells after 72 hrs; format: functional, cell-based; settings: NCI-H1650, 72 h
[42] = tested on: NCI-H1299; experiment: Antiproliferative activity against human NCI-H1299 cells after 72 hrs; format: functional, cell-based; settings: NCI-H1299, 72 h
[43] = tested on: NCI-H596; experiment: Antiproliferative activity against human NCI-H596 cells after 72 hrs; format: functional, cell-based; settings: NCI-H596, 72 h
[44] = tested on: NCI-H226; experiment: Antiproliferative activity against human NCI-H226 cells after 72 hrs; format: functional, cell-based; settings: NCI-H226, 72 h
[45] = tested on: NCI-H292; experiment: Antiproliferative activity against human NCI-H292 cells after 72 hrs; format: functional, cell-based; settings: NCI-H292, 72 h
[46] = tested on: NCI-H23; experiment: Antiproliferative activity against human NCI-H23 cells after 72 hrs; format: functional, cell-based; settings: NCI-H23, 72 h
[47] = tested on: NCI-H358; experiment: Antiproliferative activity against human NCI-H358 cells after 72 hrs; format: functional, cell-based; settings: NCI-H358, 72 h
[48] = tested on: NCI-H661; experiment: Antiproliferative activity against human NCI-H661 cells after 72 hrs; format: functional, cell-based; settings: NCI-H661, 72 h
[49] = biological target: Hepatocyte growth factor receptor (Homo sapiens) (UniProt P08581); experiment: Inhibition of C-Met (unknown origin) using polu (Glu,Tyr)4:1 substrate at 1 uM after 30 mins incubation by multi-well spectrophotometry
[50] = biological target: Hepatocyte growth factor receptor (Homo sapiens) (UniProt P08581); experiment: Inhibition of C-Met (unknown origin) using polu (Glu,Tyr)4:1 substrate at 100 uM after 30 mins incubation by multi-well spectrophotometry
[51] = tested on: Liver; experiment: Drug formation in CD1 mouse liver microsomes treated with 2-Fluoro-4-(8-fluoro-3-(quinolin-6-ylmethyl)imidazo[1,2-a]pyridin-6-yl)-N-methylbenzamide after 60 mins by UPLC/Q-TOF MS/MS analysis; format: ADME; settings: 1 h
[52] = tested on: Liver microsome; experiment: Drug formation in human liver microsomes treated with 2-Fluoro-4-(8-fluoro-3-(quinolin-6-ylmethyl)imidazo[1,2-a]pyridin-6-yl)-N-methylbenzamide after 60 mins by UPLC/Q-TOF MS/MS analysis; format: ADME; settings: 1 h
[53] = Drug formation in monkey liver microsomes treated with 2-Fluoro-4-(8-fluoro-3-(quinolin-6-ylmethyl)imidazo[1,2-a]pyridin-6-yl)-N-methylbenzamide after 60 mins by UPLC/Q-TOF MS/MS analysis; format: ADME, Macaca mulatta; settings: rhesus monkey, 1 h
[54] = tested on: Liver microsome; experiment: Drug formation in beagle dog liver microsomes treated with 2-Fluoro-4-(8-fluoro-3-(quinolin-6-ylmethyl)imidazo[1,2-a]pyridin-6-yl)-N-methylbenzamide after 60 mins by UPLC/Q-TOF MS/MS analysis; format: ADME, Canis lupus familiaris; settings: 1 h

Hepatocyte growth factor receptor (Homo sapiens), sequence (P08581 whole entry): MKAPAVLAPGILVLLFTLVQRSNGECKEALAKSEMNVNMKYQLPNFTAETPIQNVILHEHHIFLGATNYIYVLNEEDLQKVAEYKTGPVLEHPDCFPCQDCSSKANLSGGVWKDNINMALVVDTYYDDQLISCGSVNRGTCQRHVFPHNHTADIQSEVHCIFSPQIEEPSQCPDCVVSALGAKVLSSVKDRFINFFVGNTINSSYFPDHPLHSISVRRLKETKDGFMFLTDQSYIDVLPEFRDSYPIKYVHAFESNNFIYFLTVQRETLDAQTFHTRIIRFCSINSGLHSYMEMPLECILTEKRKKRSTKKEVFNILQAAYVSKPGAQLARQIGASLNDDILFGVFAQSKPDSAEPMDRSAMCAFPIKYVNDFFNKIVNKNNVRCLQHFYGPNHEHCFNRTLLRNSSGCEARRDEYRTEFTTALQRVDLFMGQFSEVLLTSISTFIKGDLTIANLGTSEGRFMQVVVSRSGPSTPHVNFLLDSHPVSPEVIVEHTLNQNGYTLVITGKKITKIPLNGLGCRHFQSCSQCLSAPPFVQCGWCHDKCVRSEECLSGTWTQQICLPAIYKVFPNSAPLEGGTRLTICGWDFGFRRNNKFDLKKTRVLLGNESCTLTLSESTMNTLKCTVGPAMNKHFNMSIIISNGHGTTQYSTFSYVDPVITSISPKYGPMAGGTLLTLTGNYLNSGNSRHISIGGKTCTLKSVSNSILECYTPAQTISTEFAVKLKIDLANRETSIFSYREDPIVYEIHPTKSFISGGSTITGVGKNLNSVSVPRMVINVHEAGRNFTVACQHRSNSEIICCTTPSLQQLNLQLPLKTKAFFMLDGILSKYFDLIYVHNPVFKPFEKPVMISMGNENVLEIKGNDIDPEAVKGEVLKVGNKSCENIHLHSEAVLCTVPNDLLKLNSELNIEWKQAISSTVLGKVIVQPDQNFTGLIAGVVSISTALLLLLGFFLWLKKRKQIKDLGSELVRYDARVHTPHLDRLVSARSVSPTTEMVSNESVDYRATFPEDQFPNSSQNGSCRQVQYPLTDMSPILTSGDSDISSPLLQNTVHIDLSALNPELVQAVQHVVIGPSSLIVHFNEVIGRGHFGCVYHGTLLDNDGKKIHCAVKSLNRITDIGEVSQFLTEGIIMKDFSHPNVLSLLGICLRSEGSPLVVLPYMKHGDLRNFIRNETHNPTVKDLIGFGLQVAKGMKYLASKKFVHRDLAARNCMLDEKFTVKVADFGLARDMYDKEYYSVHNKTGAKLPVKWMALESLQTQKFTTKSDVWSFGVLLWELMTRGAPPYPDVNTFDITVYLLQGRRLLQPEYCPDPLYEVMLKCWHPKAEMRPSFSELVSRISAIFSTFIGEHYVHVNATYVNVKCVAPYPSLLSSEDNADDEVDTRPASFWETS
Tyrosine-protein kinase receptor UFO, sequence (P30530 whole entry): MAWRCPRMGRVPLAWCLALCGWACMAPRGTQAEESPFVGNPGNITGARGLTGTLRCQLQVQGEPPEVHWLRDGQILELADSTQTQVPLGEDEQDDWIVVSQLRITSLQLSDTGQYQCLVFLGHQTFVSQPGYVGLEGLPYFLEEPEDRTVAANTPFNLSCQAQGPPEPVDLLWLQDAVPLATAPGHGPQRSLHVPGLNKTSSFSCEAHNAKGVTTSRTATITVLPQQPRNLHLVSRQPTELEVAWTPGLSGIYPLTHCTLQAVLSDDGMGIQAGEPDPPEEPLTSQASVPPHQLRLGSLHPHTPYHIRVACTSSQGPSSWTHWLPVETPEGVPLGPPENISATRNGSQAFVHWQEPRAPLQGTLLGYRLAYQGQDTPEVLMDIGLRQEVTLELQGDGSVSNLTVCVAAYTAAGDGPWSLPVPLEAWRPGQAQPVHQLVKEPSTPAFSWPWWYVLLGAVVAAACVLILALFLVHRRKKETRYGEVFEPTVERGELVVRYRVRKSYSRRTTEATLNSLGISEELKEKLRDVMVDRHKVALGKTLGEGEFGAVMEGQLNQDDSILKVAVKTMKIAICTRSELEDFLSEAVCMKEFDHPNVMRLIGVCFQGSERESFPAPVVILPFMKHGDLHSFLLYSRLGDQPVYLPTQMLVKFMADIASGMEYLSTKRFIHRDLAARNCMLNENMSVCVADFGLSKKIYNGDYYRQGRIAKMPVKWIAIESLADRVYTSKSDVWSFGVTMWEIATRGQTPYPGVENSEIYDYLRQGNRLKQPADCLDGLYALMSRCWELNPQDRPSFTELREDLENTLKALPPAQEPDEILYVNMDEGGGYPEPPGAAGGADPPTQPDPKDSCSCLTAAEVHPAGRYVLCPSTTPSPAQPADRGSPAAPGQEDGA
Tyrosine-protein kinase Mer, sequence (Q12866 whole entry): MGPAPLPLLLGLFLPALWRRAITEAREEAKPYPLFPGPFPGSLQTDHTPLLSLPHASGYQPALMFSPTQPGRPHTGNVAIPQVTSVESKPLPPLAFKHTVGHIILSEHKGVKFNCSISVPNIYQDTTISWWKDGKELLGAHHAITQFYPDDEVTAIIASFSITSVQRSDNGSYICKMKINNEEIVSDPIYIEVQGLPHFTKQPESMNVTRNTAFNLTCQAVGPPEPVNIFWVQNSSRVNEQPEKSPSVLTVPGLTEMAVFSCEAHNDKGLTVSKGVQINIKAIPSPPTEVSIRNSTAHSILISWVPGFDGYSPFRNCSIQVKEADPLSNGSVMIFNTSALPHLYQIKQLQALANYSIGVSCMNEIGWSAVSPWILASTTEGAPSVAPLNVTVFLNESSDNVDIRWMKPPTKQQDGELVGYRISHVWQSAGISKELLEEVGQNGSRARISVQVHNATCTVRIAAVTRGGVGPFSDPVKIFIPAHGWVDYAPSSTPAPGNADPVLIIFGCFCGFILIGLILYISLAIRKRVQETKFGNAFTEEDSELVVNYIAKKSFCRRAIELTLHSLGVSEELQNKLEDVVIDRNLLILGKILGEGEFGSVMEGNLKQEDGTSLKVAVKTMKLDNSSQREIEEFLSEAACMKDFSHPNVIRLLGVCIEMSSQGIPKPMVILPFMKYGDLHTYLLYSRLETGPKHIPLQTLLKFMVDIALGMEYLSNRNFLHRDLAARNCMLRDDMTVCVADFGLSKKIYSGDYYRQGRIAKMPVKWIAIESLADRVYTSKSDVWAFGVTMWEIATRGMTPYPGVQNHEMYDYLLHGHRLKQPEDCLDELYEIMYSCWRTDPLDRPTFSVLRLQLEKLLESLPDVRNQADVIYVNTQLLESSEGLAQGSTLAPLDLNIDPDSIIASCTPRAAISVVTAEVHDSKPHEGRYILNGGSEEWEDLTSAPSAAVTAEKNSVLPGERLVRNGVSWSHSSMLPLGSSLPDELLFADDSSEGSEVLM
Voltage-gated inwardly rectifying potassium channel KCNH2, sequence (Q12809 whole entry): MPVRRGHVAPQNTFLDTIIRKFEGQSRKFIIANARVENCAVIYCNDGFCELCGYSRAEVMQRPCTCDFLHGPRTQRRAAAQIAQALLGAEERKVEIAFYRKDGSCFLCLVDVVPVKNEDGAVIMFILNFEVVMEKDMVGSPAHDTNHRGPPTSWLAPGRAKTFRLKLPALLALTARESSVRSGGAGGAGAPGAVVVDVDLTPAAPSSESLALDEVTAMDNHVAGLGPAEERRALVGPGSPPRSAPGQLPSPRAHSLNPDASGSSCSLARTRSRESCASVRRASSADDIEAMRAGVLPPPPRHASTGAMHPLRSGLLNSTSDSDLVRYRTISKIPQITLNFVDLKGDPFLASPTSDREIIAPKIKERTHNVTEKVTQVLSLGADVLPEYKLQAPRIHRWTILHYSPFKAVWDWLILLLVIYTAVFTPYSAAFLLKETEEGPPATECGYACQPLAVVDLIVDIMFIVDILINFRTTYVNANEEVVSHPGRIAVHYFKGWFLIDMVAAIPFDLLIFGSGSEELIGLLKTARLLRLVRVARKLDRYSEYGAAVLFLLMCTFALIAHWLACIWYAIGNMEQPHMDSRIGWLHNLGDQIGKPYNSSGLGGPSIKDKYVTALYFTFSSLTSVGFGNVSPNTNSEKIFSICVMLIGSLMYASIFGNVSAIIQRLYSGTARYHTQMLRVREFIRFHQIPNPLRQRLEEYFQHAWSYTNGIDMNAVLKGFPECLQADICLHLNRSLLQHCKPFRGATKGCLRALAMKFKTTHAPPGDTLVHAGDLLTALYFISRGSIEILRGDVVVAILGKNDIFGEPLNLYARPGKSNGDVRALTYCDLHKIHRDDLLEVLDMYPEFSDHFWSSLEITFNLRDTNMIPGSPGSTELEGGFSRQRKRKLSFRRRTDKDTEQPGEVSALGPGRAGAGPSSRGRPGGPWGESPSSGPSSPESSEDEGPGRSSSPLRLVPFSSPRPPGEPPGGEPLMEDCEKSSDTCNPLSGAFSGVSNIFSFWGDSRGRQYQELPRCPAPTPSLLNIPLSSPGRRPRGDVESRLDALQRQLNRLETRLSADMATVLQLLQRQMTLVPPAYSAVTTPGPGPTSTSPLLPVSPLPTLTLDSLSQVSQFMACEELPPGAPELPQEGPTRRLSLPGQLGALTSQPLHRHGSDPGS

SMILES: Fc1cc(F)cc(-c2cc(F)c3ncc(Cc4ccc5ncccc5c4)n3c2)c1
IC50 [1]: 0.79 µM

SMILES: O=C(c1ccc(-c2cc(F)c3ncc(Cc4ccc5ncccc5c4)n3c2)cc1F)N1CCC2(COC2)C1
IC50 [1]: 0.406 µM

Drug metabolism [2]: metabolite_notdetected
Drug metabolism [3]: metabolite_detected
Drug metabolism [4]: metabolite_detected
Drug metabolism [5]: metabolite_detected
Drug metabolism [6]: metabolite_notdetected
IC50 [13]: > 50 µM
IC50 [20]: > 50 µM
IC50 [21]: > 50 µM
IC50 [23]: > 50 µM
IC50 [24]: > 50 µM
IC50 [25]: > 10 µM
IC50 [26]: > 10 µM
IC50 [27]: > 10 µM
IC50 [30]: 0.203 µM
half-life [36]: 1.17 h
bioavailability [37]: 29.4%
Drug metabolism [38]: metabolite_detected
IC50 [39]: > 50 µM
IC50 [40]: > 50 µM
IC50 [41]: > 50 µM
IC50 [42]: > 50 µM
IC50 [43]: > 50 µM
IC50 [44]: > 50 µM
IC50 [45]: > 50 µM
IC50 [46]: > 50 µM
IC50 [47]: > 50 µM
IC50 [48]: > 50 µM
SMILES: CNC(=O)c1ccc(-c2cc(F)c3ncc(Cc4ccc5ncccc5c4)n3c2)cc1F
IC50 [7]: 93.6 µM
TGI [8]: Dose-dependent effect
inhibition in vivo at 100 mg/kg [9]: 75%
inhibition in vivo at 50 mg/kg [10]: 62.9%
Activity [11]: Non-toxic
IC50 [12]: > 50 µM
IC50 [14]: > 50 µM
IC50 [15]: > 50 µM
IC50 [16]: > 50 µM
IC50 [17]: > 50 µM
IC50 [18]: > 50 µM
IC50 [19]: > 50 µM
IC50 [22]: > 50 µM
IC50 [1]: 0.045 µM
IC50 [28]: 0.0909 µM
IC50 [29]: 0.0702 µM
Activity [31]: Active
Activity [32]: 81.84%
inhibition [33]: Active
inhibition [34]: Active
inhibition [35]: Dose-dependent effect

SMILES: O=C(NCc1ccccn1)c1ccc(-c2cc(F)c3ncc(Cc4ccc5ncccc5c4)n3c2)cc1F
IC50 [1]: 5.55 µM

SMILES: Fc1cc(-c2cnn(C3CCNCC3)c2)cn2c(Cc3ccc4ncccc4c3)cnc12
IC50 [1]: 1.46 µM

inhibition [49]: 9.6%
SMILES: Cn1cc(-c2cc(C(F)(F)F)c3ncc(Cc4ccc5ncccc5c4)n3c2)cn1

inhibition [49]: 24.5%
SMILES: Cn1cc(-c2cn3c(Cc4ccc5ncccc5c4)cnc3cc2Cl)cn1

SMILES: N#Cc1ccc(-c2cc(F)c3ncc(Cc4ccc5ncccc5c4)n3c2)cc1F
IC50 [1]: 0.145 µM

SMILES: CNC(=O)c1ccc(-c2cc(F)c3ncc(Cc4ccc5ncccc5c4)n3c2)cc1OC
IC50 [1]: 0.0596 µM

SMILES: N#Cc1ccc(-c2cc(F)c3ncc(Cc4ccc5ncccc5c4)n3c2)cn1
IC50 [1]: 0.189 µM

inhibition [50]: 34.5%
SMILES: Cn1cc(-c2cc(C#N)c3ncc(Cc4ccc5ncccc5c4)n3c2)cn1

SMILES: CCO/N=C(\C)c1cc(F)c2ncc(Cc3ccc4ncccc4c3)n2c1
IC50 [1]: 1.48 µM

SMILES: CNC(=O)c1cccc(-c2cc(F)c3ncc(Cc4ccc5ncccc5c4)n3c2)c1
IC50 [1]: 0.4 µM

SMILES: O=C(NCc1cc(F)cc(F)c1)c1ccc(-c2cc(F)c3ncc(Cc4ccc5ncccc5c4)n3c2)cc1F
IC50 [1]: 0.0536 µM

Drug metabolism [51]: metabolite_detected
Drug metabolism [52]: metabolite_detected
Drug metabolism [53]: metabolite_detected
Drug metabolism [54]: metabolite_detected
SMILES: CNC(=O)c1ccc(-c2cc(F)c3ncc(C(O)c4ccc5ncccc5c4)n3c2)cc1F (stereo not drawn)
IC50 [1]: 3.02 µM

SMILES: O=C(NCC1CCCCN1)c1ccc(-c2cc(F)c3ncc(Cc4ccc5ncccc5c4)n3c2)cc1F (stereo not drawn)
IC50 [1]: 0.277 µM

inhibition [49]: 5.9%
SMILES: Cn1cc(-c2cn3c(Cc4ccc5ncccc5c4)cnc3cc2C(F)(F)F)cn1
